From patent US20200405697A1, “Antitumor Agent” (Taiho Pharmaceutical Co., Ltd, priority 2017, published 2020) come the findings set out here.

In this assay the target is T1, human RNR (histidine tagged human M1 and human M2 proteins) (Homo sapiens, UniProt P23921).
T1 construct: made in house; host or cells: Escherichia coli
T1 sequence (P23921 1-792): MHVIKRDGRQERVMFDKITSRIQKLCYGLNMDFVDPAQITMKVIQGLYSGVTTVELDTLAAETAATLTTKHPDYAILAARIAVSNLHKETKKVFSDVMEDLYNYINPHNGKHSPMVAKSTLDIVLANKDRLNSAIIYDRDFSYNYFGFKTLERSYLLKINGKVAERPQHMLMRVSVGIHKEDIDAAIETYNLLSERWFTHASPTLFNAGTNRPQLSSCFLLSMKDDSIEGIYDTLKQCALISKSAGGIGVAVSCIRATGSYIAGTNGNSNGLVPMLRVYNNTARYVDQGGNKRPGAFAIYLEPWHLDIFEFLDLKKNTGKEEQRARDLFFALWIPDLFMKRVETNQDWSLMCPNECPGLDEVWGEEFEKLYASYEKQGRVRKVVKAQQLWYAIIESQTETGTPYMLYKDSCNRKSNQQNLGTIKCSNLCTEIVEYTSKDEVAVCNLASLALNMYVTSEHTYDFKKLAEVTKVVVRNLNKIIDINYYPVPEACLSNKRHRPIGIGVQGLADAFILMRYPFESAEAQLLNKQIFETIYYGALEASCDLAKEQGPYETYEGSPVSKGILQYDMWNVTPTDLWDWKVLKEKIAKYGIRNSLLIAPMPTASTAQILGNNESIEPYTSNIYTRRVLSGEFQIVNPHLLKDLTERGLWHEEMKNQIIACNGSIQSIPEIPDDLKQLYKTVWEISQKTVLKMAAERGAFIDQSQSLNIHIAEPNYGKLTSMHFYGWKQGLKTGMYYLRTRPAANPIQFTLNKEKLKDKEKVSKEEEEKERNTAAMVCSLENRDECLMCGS
Briefly: Human RNR inhibition effect (dCDP formation from CDP). Conditions: 10 μM CDP, 37° C. for 30 minutes, read-out: RNR inhibitory activity IC50. Type of assay: biochemical. In a few lines: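 His-tagged human M1 (isoform 1) and N-terminal 59-aa-truncated M2 (isoform 2), E. coli-expressed, Ni-purified, preincubated 20 min with compound (1% DMSO). Reaction with 10 μM CDP, 2 mM ATP, 0.24 mM NADPH, 6 mM DTT, 4 mM Mg acetate, 100 mM KCl, 50 mM HEPES pH 7.2, 30 min at 37° C. dCDP formed quantified by reverse-phase HPLC after heat stop.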

For the compound `COc1cc(C(N)=O)c(S(=O)(=O)N[C@H](c2n[nH]c(=O)o2)[C@H](C)c2c(F)ccc(C)c2C)cc1OC` [Example 260, 2-(N-((1S,2R)-2-(6-fluoro-2,3-dimethylphenyl)-1-(5-oxo-4,5-dihydro-1,3,4-oxadiazol-2-yl)propyl)sulfamoyl)-4,5-dimethoxybenzamide], the half-inhibitory concentration (IC50) stood at 0.36 µM.

For the compound `Cc1ccc(F)c([C@@H](C)[C@H](NS(=O)(=O)c2cc3c(cc2C(N)=O)OCCO3)c2n[nH]c(=O)o2)c1C` [Example 261, 7-(N-((1S,2R)-2-(6-fluoro-2,3-dimethylphenyl)-1-(5-oxo-4,5-dihydro-1,3,4-oxadiazol-2-yl)propyl)sulfamoyl)-2,3-dihydrobenzo[b][1,4]dioxin-6-carboxamide], the IC50 was found to be 0.09 µM.

Turning to `Cc1ccc(F)c([C@@H](C)[C@H](NS(=O)(=O)c2cc([N+](=O)[O-])c(Cl)cc2C(N)=O)c2n[nH]c(=O)o2)c1C` [Example 262, 5-chloro-2-(N-((1S,2R)-2-(6-fluoro-2,3-dimethylphenyl)-1-(5-oxo-4,5-dihydro-1,3,4-oxadiazol-2-yl)propyl)sulfamoyl)-4-nitrobenzamide], the concentration for half-maximal inhibition (IC50) is 0.13 µM.

On to `Cc1ccc(F)c([C@@H](C)[C@H](NS(=O)(=O)c2cc(OCC(F)F)ccc2C(N)=O)c2n[nH]c(=O)o2)c1C` [Example 263, 4-(2,2-difluoroethoxy)-2-(N-((1S,2R)-2-(6-fluoro-2,3-dimethylphenyl)-1-(5-oxo-4,5-dihydro-1,3,4-oxadiazol-2-yl)propyl)sulfamoyl)benzamide], for which the concentration for half-maximal inhibition (IC50) amounted to 0.07 µM.

For the compound `Cc1c(Br)ccc(F)c1[C@@H](C)[C@H](NS(=O)(=O)c1ncc(Cl)cc1C(N)=O)c1n[nH]c(=O)o1` [Example 264, 2-(N-((1S,2R)-2-(3-bromo-6-fluoro-2-methylphenyl)-1-(5-oxo-4,5-dihydro-1,3,4-oxadiazol-2-yl)propyl)sulfamoyl)-5-chloronicotinamide], the half-inhibitory concentration (IC50) worked out at 0.06 µM.

In the case of `COc1cc(N)ccc1S(=O)(=O)N[C@H](c1n[nH]c(=O)o1)[C@H](C)c1c(F)ccc2ccccc12` [Example 265, 4-amino-N-((1S,2R)-2-(2-fluoronaphthalen-1-yl)-1-(5-oxo-4,5-dihydro-1,3,4-oxadiazol-2-yl)propyl)-2-methoxybenzenesulfonamide], the 50% inhibitory concentration (IC50) was determined as 0.26 µM.

`C[C@H](c1cccc2c1CCCC2)[C@H](NS(=O)(=O)c1ccc(N)cc1)c1n[nH]c(=O)o1` [Example 266, 4-amino-N-((1S,2R)-1-(5-oxo-4,5-dihydro-1,3,4-oxadiazol-2-yl)-2-(5,6,7,8-tetrahydronaphthalen-1-yl)propyl)benzenesulfonamide]: the IC50 is 0.85 µM.

As to `COc1cc(N)ccc1S(=O)(=O)N[C@H](c1n[nH]c(=O)o1)[C@H](C)c1cccc2cccc(C)c12` [Example 269, 4-amino-2-methoxy-N-((1S,2R)-2-(8-methylnaphthalen-1-yl)-1-(5-oxo-4,5-dihydro-1,3,4-oxadiazol-2-yl)propyl)benzenesulfonamide], the IC50 was 0.51 µM.

Take `COc1cc(N)ccc1S(=O)(=O)N[C@H](c1n[nH]c(=O)o1)[C@H](C)c1cccc2c1CCC2` [Example 270, 4-amino-N-((1S,2R)-2-(2,3-dihydro-1H-inden-4-yl)-1-(5-oxo-4,5-dihydro-1,3,4-oxadiazol-2-yl)propyl)-2-methoxybenzenesulfonamide]: the IC50 is 0.73 µM.

On to `Cc1ccc(F)c([C@@H](C)[C@H](NS(=O)(=O)c2ccc(Cl)cc2N)c2n[nH]c(=O)o2)c1C` [Example 271, 2-amino-4-chloro-N-((1S,2R)-2-(6-fluoro-2,3-dimethylphenyl)-1-(5-oxo-4,5-dihydro-1,3,4-oxadiazol-2-yl)propyl)benzenesulfonamide], for which the 50% inhibitory concentration (IC50) was 0.23 µM.

`COC(=O)c1cc(Cl)c(N)cc1S(=O)(=O)N[C@H](c1n[nH]c(=O)o1)[C@H](C)c1c(F)ccc(C)c1C` [Example 272, methyl 4-amino-5-chloro-2-(N-((1S,2R)-2-(6-fluoro-2,3-dimethylphenyl)-1-(5-oxo-4,5-dihydro-1,3,4-oxadiazol-2-yl)propyl)sulfamoyl)benzoate]: the half-maximal inhibitory concentration (IC50) came out at 0.66 µM.

As to `Cc1ccc(F)c([C@@H](C)[C@H](NS(=O)(=O)c2ccc(Cl)c3c2OCC(=O)N3CCO)c2n[nH]c(=O)o2)c1C` [Example 273, 5-chloro-N-((1S,2R)-2-(6-fluoro-2,3-dimethylphenyl)-1-(5-oxo-4,5-dihydro-1,3,4-oxadiazol-2-yl)propyl)-4-(2-hydroxyethyl)-3-oxo-3,4-dihydro-2H-benzo[b][1,4]oxazine-8-sulfonamide], the IC50 stood at 0.13 µM.

Regarding `CC(=O)Nc1cc(Cl)ccc1S(=O)(=O)N[C@H](c1n[nH]c(=O)o1)[C@H](C)c1c(F)ccc(C)c1C` [Example 274, N-(5-chloro-2-(N-((1S,2R)-2-(6-fluoro-2,3-dimethylphenyl)-1-(5-oxo-4,5-dihydro-1,3,4-oxadiazol-2-yl)propyl)sulfamoyl)phenyl)acetamide], the concentration for half-maximal inhibition (IC50) amounted to 0.44 µM.

For `Cc1ccc(F)c([C@@H](C)[C@H](NS(=O)(=O)c2ccc(Cl)c3c2OCCN3)c2n[nH]c(=O)o2)c1C` [Example 275, 5-chloro-N-((1S,2R)-2-(6-fluoro-2,3-dimethylphenyl)-1-(5-oxo-4,5-dihydro-1,3,4-oxadiazol-2-yl)propyl)-3,4-dihydro-2H-benzo[b][1,4]oxazine-8-sulfonamide], the IC50 was 0.1 µM.

In the case of `CNC(=O)c1cc(Cl)ccc1S(=O)(=O)N[C@H](c1n[nH]c(=O)o1)[C@H](C)c1c(F)ccc(C)c1C` [Example 277, 5-chloro-2-(N-((1S,2R)-2-(6-fluoro-2,3-dimethylphenyl)-1-(5-oxo-4,5-dihydro-1,3,4-oxadiazol-2-yl)propyl)sulfamoyl)-N-methylbenzamide], the 50% inhibitory concentration (IC50) came out at 0.37 µM.

Take `Cc1ccc(F)c([C@@H](C)[C@H](NS(=O)(=O)c2ccc(Cl)c3c2OCCC3N)c2n[nH]c(=O)o2)c1C` (stereo partly drawn) [Example 278, 4-amino-5-chloro-N-((1S,2R)-2-(6-fluoro-2,3-dimethylphenyl)-1-(5-oxo-4,5-dihydro-1,3,4-oxadiazol-2-yl)propyl)chroman-8-sulfonamide]: the IC50 worked out at 0.13 µM.

In the case of `Cc1ccc(F)c([C@@H](C)[C@H](NS(=O)(=O)c2cccc3c2OCCN3)c2n[nH]c(=O)o2)c1C` [Example 280, N-((1S,2R)-2-(6-fluoro-2,3-dimethylphenyl)-1-(5-oxo-4,5-dihydro-1,3,4-oxadiazol-2-yl)propyl)-3,4-dihydro-2H-benzo[b][1,4]oxazine-8-sulfonamide], the half-maximal inhibitory concentration (IC50) came to 0.42 µM.

Take `Cc1ccc(F)c([C@@H](C)[C@H](NS(=O)(=O)c2cccc3c2CCNC3)c2n[nH]c(=O)o2)c1C` [Example 281, N-((1S,2R)-2-(6-fluoro-2,3-dimethylphenyl)-1-(5-oxo-4,5-dihydro-1,3,4-oxadiazol-2-yl)propyl)-1,2,3,4-tetrahydroisoquinoline-5-sulfonamide]: the half-inhibitory concentration (IC50) came out at 0.76 µM.

`Cc1ccc(F)c([C@@H](C)[C@H](NS(=O)(=O)c2ccc(Cl)cc2C(=O)NOCc2ccccc2)c2n[nH]c(=O)o2)c1C` [Example 282, N-(benzyloxy)-5-chloro-2-(N-((1S,2R)-2-(6-fluoro-2,3-dimethylphenyl)-1-(5-oxo-4,5-dihydro-1,3-oxadiazol-2-yl)propyl)sulfamoyl)benzamide]: the half-maximal inhibitory concentration (IC50) is 0.91 µM.

As to `Cc1ccc(F)c([C@@H](C)[C@H](NS(=O)(=O)c2ccc(Cl)c(C(=O)N3CCC(N)C3)n2)c2n[nH]c(=O)o2)c1C` (stereo partly drawn) [Example 283, 6-(3-aminopyrrolidine-1-carbonyl)-5-chloro-N-((1S,2R)-2-(6-fluoro-2,3-dimethylphenyl)-1-(5-oxo-4,5-dihydro-1,3,4-oxadiazol-2-yl)propyl)pyridine-2-sulfonamide], the half-maximal inhibitory concentration (IC50) amounted to 0.15 µM.

For the compound `CC(=O)N1CCOc2c(S(=O)(=O)N[C@H](c3n[nH]c(=O)o3)[C@H](C)c3cccc(C)c3C)ccc(Cl)c21` [Example 284, 4-acetyl-5-chloro-N-((1S,2R)-2-(2,3-dimethylphenyl)-1-(5-oxo-4,5-dihydro-1,3,4-oxadiazol-2-yl)propyl)-3,4-dihydro-2H-benzo[b][1,4]oxazine-8-sulfonamide], the concentration for half-maximal inhibition (IC50) stood at 0.56 µM.

Turning to `Cc1ccc(F)c([C@@H](C)[C@H](NS(=O)(=O)c2ccccc2C(=O)NO)c2n[nH]c(=O)o2)c1C` [Example 285, 2-(N-((1S,2R)-2-(6-fluoro-2,3-dimethylphenyl)-1-(5-oxo-4,5-dihydro-1,3,4-oxadiazol-2-yl)propyl)sulfamoyl)-N-hydroxybenzamide], the half-inhibitory concentration (IC50) came out at 0.31 µM.
